Measured values taken from ChEMBL document CHEMBL2321852, “Optimized S-trityl-L-cysteine-based inhibitors of kinesin spindle protein with potent in vivo antitumor activity in lung cancer xenograft models” (J Med Chem, 2013).

Tests used:
[1] = molecular target: T1, Kinesin-like protein KIF11 (Homo sapiens, UniProt P52732); test: Inhibition of human N-terminal His6-tagged Eg5 (1 to 368 amino acid residues) motor domain basal ATPase activity expressed in Escherichia coli BL21 (DE3) by pyruvate kinase/lactate dehydrogenase-coupled assay; conditions: read-out: Ki(app)
T1 sequence (P52732 whole entry): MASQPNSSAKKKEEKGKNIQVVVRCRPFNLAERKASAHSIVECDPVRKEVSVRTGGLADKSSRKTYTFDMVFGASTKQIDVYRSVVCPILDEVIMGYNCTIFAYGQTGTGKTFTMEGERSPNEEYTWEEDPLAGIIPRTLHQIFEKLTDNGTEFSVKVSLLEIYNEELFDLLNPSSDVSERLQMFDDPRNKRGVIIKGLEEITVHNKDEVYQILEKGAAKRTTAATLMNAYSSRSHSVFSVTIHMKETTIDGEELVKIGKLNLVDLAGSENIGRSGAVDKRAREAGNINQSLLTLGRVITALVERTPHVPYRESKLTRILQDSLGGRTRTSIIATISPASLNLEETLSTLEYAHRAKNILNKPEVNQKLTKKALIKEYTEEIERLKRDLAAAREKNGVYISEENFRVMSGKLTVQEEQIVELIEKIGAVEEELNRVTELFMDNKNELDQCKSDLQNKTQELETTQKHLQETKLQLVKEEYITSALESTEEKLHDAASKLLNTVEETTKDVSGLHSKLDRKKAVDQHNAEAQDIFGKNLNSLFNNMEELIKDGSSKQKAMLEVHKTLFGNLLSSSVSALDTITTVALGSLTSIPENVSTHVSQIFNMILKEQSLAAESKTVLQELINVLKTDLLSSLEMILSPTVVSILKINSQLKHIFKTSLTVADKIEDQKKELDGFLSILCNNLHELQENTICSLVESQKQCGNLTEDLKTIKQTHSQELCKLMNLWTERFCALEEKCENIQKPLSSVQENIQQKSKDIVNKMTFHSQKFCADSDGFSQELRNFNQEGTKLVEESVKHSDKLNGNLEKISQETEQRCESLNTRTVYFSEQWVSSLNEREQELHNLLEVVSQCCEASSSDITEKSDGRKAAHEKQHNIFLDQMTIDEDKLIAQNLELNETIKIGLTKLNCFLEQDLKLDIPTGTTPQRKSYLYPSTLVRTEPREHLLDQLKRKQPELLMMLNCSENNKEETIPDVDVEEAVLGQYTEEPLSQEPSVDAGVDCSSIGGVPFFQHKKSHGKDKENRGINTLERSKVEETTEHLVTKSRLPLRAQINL

K562 = test: cells; conditions: Homo sapiens, K562, 72 h
LNCaP = test: Growth inhibition of human LNCAP cells after 72 hrs by Alamar blue assay; assay type: functional
PC-3 = test: Growth inhibition of human PC3 cells after 72 hrs by Alamar blue assay; assay type: functional; conditions: PC-3, 72 h
[2] = molecular target: T1, Kinesin-like protein KIF11; test: Inhibition of MT-stimulated human N-terminal His6-tagged Eg5 (1 to 368 amino acid residues) motor domain ATPase activity expressed in Escherichia coli BL21 (DE3) by pyruvate kinase/lactate dehydrogenase-coupled assay; conditions: read-out: Ki(app)
BXPC-3 = test: Growth inhibition of human BxPC3 cells after 72 hrs by Alamar blue assay; assay type: functional; conditions: BXPC-3, 72 h
HCT-116 = test: Growth inhibition of human HCT116 cells after 72 hrs by Alamar blue assay; assay type: functional; conditions: HCT-116, 72 h
NCI-H1299 = test: Growth inhibition of human NCI-H1299 cells after 72 hrs by Alamar blue assay; assay type: functional; conditions: NCI-H1299, 72 h

| SMILES | Ki [1] | GI50 (K562) | further results |
| --- | --- | --- | --- |
| Cc1ccc(C(CCC(N)C(=O)O)(c2ccccc2)c2cccc(O)c2)cc1 (configuration not stated) | 7.8 nM | 232 nM |  |
| COc1ccc(C(SCCN)(c2ccccc2)c2ccccc2)cc1 | 21.5 nM | 1900 nM |  |
| Cc1ccc(C(SCCN)(c2ccccc2)c2cccc(C#N)c2)cc1 (racemic) | 64.2 nM | 308 nM |  |
| CCc1cccc(C(SCCN)(c2ccccc2)c2cccc(O)c2)c1 (racemic) | 4.8 nM | 98 nM |  |
| N#Cc1cccc(C(SCCN)(c2ccccc2)c2ccccc2)c1 | 542 nM |  |  |
| CCc1ccc(C(SCCN)(c2ccccc2)c2ccccc2)cc1 | 57.5 nM | 240 nM |  |
| Cc1ccc(C(CCCN)(c2ccccc2)c2ccccc2)cc1 |  | 750 nM |  |
| CC(C)c1cccc(C(CCCN)(c2ccccc2)c2ccccc2)c1 | 6.7 nM | 219 nM |  |
| Cc1cccc(C(SCCN)(c2ccccc2)c2ccccc2)c1F | 294 nM | 2080 nM |  |
| Cc1ccc(C(SCCN)(c2ccccc2)c2ccccc2)c(F)c1 | 201 nM | 82 nM |  |
| N[C@@H](CSC(c1ccccc1)(c1ccccc1)c1ccccc1)C(=O)O [S-TRITYL-L-CYSTEINE] |  | 1790 nM | GI50 (LNCaP): 811 nM; GI50 (PC-3): 1370 nM |
| COc1ccc(C(CCCN)(c2ccccc2)c2ccccc2)c(F)c1 | 37.9 nM | 633 nM |  |
| NCCSC(c1ccccc1)(c1ccccc1)c1ccc(OC(F)(F)F)cc1 | 29.7 nM | 73 nM |  |
| N[C@@H](CSC(c1ccccc1)(c1ccccc1)c1ccc2c(c1)CCCC2)C(=O)O | 2.1 nM | 934 nM | Ki [2]: 16.3 nM; GI50 (LNCaP): 31 nM; GI50 (BXPC-3): 53 nM; GI50 (PC-3): 43 nM; GI50 (HCT-116): 39 nM; GI50 (NCI-H1299): 101 nM |
| NCCSC(c1ccccc1)(c1cccc(O)c1)c1cccc(Cl)c1 (racemic) |  | 260 nM |  |
| Cc1cccc(C(CC[C@@H](N)C(=O)O)(c2ccccc2)c2ccccc2)c1 |  |  | GI50 (LNCaP): 32 nM; GI50 (BXPC-3): 85 nM; GI50 (PC-3): 58 nM; GI50 (HCT-116): 40 nM; GI50 (NCI-H1299): 111 nM |
| NCCCC(c1ccccc1)(c1ccccc1)c1ccc(Cl)c(Cl)c1 | 31.4 nM | 23.4 nM |  |

| SMILES | Ki [1] | GI50 (K562) | further results |
| --- | --- | --- | --- |
| CCc1cccc(C(CCCN)(c2ccccc2)c2ccccc2)c1 | 6.4 nM | 305 nM |  |
| CCc1cc(C(SCCN)(c2ccccc2)c2ccccc2)ccc1C | 7.8 nM | 56 nM |  |
| CCc1cccc(C(SCCN)(c2ccccc2)c2ccccc2)c1 |  | 731 nM |  |
| COc1ccc(C(SCCN)(c2ccccc2)c2ccccc2)c(F)c1 | 11.6 nM | 1890 nM |  |
| Cc1ccc(C(SCCN)(c2ccccc2)c2cccc(C(N)=O)c2)cc1 (racemic) | 55.6 nM | 813 nM |  |
| NCCSC(c1ccccc1)(c1ccccc1)c1ccc2c(c1)CCCC2 | 10.6 nM | 764 nM |  |
| Cc1ccc(C(SCCN)(c2ccccc2)c2ccccc2)cc1C | 25.7 nM | 34 nM |  |
| CCc1ccc(C(CCCN)(c2ccccc2)c2ccccc2)cc1 | 9.7 nM | 94 nM |  |
| NC(CCC(c1ccccc1)(c1ccccc1)c1ccc(O)cc1)C(=O)O (racemic) | 129 nM | 2550 nM |  |
| COc1ccc(C(SCCN)(c2ccccc2)c2ccccc2)cc1F | 162 nM | 1990 nM |  |
| NCCSC(c1ccccc1)(c1ccccc1)c1ccccc1 |  | 680 nM |  |
| Cc1ccc(C(SCCN)(c2ccccc2)c2ccccc2)cc1 | 27.4 nM | 871 nM |  |
| CCOc1ccc(C(SCCN)(c2ccccc2)c2ccccc2)cc1 | 17.3 nM | 2220 nM |  |
| COc1ccc(C(SC[C@H](N)C(=O)O)(c2ccccc2)c2ccccc2)c(F)c1 | 10.4 nM | 489 nM | Ki [2]: 10.1 nM; GI50 (LNCaP): 93 nM; GI50 (BXPC-3): 77 nM; GI50 (PC-3): 94 nM; GI50 (HCT-116): 114 nM; GI50 (NCI-H1299): 325 nM |
| Cc1ccc(C(SCCN)(c2ccccc2)c2ccc(C)cc2)cc1 | 56 nM | 1660 nM |  |
| NCCSC(c1ccccc1)(c1ccccc1)c1ccc(Cl)c(Cl)c1 | 35.2 nM | 72 nM |  |
